Experimental data as given in patent publication US10934285B2, “Compounds and compositions for inhibiting the activity of SHP2” (Novartis AG, priority 2016, dated 2021).

target: SHP2 (Homo sapiens (Human), UniProt Q06124); assay: SHP2 Allosteric Inhibition Assay; assay type: biochemical; settings: 0.5 nM SHP2 activated with 0.5 μM peptide IRS1_pY1172(dPEG8)pY1222; surrogate substrate DiFMUP; prompt fluorescence
Excerpt: SHP2 Allosteric Inhibition Assay
SHP2 is allosterically activated through binding of bis-tyrosyl-phorphorylated peptides to its Src Homology 2 (SH2) domains. The latter activation step leads to the release of the auto-inhibitory interface of SHP2, which in turn renders the SHP2 protein tyrosine phosphatase (PTP) active and available for substrate recognition and reaction catalysis. The catalytic activity of SHP2 was monitored using the surrogate substrate DiFMUP in a prompt fluorescence assay format.
After 30-60 minutes incubation at 25° C., the surrogate substrate DiFMUP (Invitrogen, cat #D6567) was added to the reaction and incubated at 25° C. for 30 minutes. […] The inhibitor dose response curves were analyzed using normalized IC50 regression curve fitting with control based normalization.

Sequence of SHP2 (Q06124 whole entry): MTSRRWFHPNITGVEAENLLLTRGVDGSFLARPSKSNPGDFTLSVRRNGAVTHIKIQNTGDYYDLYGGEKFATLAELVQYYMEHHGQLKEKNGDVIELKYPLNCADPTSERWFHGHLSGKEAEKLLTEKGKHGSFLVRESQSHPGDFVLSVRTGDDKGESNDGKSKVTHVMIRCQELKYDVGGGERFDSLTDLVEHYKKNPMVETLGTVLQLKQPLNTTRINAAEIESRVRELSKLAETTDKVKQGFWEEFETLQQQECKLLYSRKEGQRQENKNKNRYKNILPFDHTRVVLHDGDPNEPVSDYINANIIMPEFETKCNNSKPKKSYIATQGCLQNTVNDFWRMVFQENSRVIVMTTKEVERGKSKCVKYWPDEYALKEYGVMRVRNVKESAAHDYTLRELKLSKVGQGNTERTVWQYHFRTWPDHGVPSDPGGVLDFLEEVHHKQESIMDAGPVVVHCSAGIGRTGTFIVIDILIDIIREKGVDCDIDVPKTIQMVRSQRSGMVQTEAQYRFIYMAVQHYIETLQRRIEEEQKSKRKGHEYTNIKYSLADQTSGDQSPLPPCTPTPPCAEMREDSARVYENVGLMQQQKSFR

Row | Compound | IC50 [µM]
1 | C[C@@H]1OCC2(CCN(c3cnc(Sc4cccc(NC(=O)c5c(O)nc6n(c5=O)CCCC6)c4Cl)c(N)n3)CC2)[C@@H]1N [Example 27, N-(3-((3-Amino-5-((3S,4S)-4-amino-3-methyl-2-oxa-8-azaspiro[4.5]decan-8-yl)pyrazin-2-yl)thio)-2-chlorophenyl)-2-hydroxy-4-oxo-6,7,8,9-tetrahydro-4H-pyrido[1,2-a]pyrimidine-3-carboxamide] | 0.023
2 | Nc1nc(N2CCC3(CC2)CC(F)(F)C[C@H]3N)cnc1Sc1cccc(NC(=O)c2c(O)nc3n(c2=O)CCCC3)c1Cl [Example 28, (R)-N-(3-((3-amino-5-(1-amino-3,3-difluoro-8-azaspiro[4.5]decan-8-yl)pyrazin-2-yl)thio)-2-chlorophenyl)-2-hydroxy-4-oxo-6,7,8,9-tetrahydro-4H-pyrido[1,2-a]pyrimidine-3-carboxamide] | 0.042
3 | CC[C@@H]1OCC2(CCN(c3cnc(Sc4cccc(NC(=O)c5c(O)nc6n(c5=O)CCCC6)c4Cl)c(N)n3)CC2)[C@@H]1N [Example 29, N-(3-((3-amino-5-((3S,4S)-4-amino-3-ethyl-2-oxa-8-azaspiro[4.5]decan-8-yl)pyrazin-2-yl)thio)-2-chlorophenyl)-2-hydroxy-4-oxo-6,7,8,9-tetrahydro-4H-pyrido[1,2-a]pyrimidine-3-carboxamide] | 0.012
4 | C[C@@H]1CC2(CCN(c3cnc(Sc4cccc(NC(=O)c5c(O)nc6n(c5=O)CCCC6)c4Cl)c(N)n3)CC2)[C@H](N)[C@H]1F [Example 30, N-(3-((3-amino-5-((1S,2S,3R)-1-amino-2-fluoro-3-methyl-8-azaspiro[4.5]decan-8-yl)pyrazin-2-yl)thio)-2-chlorophenyl)-2-hydroxy-4-oxo-6,7,8,9-tetrahydro-4H-pyrido[1,2-a]pyrimidine-3-carboxamide] | 0.016
5 | CC1(CN)CCN(c2nnc(Sc3cccc(NC(=O)c4c(O)nc5ccccc5c4O)c3Cl)c(N)n2)CC1 [Example 31, N-(3-((5-amino-3-(4-(aminomethyl)-4-methylpiperidin-1-yl)-1,2,4-triazin-yl)thio)-2-chlorophenyl)-2,4-dihydroxyquinoline-3-carboxamide] | 0.038
6 | CC1(CN)CCN(c2nnc(Sc3cccc(NC(=O)c4c(O)nc5sccn5c4=O)c3Cl)c(N)n2)CC1 [Example 32, N-(3-((5-amino-3-(4-(aminomethyl)-4-methylpiperidin-1-yl)-1,2,4-triazin-6-yl)thio)-2-chlorophenyl)-7-hydroxy-5-oxo-5H-thiazolo[3,2-a]pyrimidine-6-carboxamide] | 0.008
7 | CC1(CN)CCN(c2nnc(Sc3cccc(NC(=O)c4c(O)nc5ccccn5c4=O)c3Cl)c(N)n2)CC1 [Example 33, N-(3-((5-amino-3-(4-(aminomethyl)-4-methylpiperidin-1-yl)-1,2,4-triazin-6-yl)thio)-2-chlorophenyl)-2-hydroxy-4-oxo-4H-pyrido[1,2-a]pyrimidine-3-carboxamide] | 0.01
8 | CC1(CN)CCN(c2nnc(Sc3cccc(NC(=O)c4c(O)nc5cnccn5c4=O)c3Cl)c(N)n2)CC1 [Example 34, N-(3-((5-amino-3-(4-(aminomethyl)-4-methylpiperidin-1-yl)-1,2,4-triazin-6-yl)thio)-2-chlorophenyl)-2-hydroxy-4-oxo-4H-pyrazino[1,2-a]pyrimidine-3-carboxamide] | 0.014
9 | CC1(CN)CCN(c2nnc(Sc3cccc(NC(=O)c4c(O)nc5[nH]ccn5c4=O)c3Cl)c(N)n2)CC1 [Example 35, N-(3-((5-amino-3-(4-(aminomethyl)-4-methylpiperidin-1-yl)-1,2,4-triazin-6-yl)thio)-2-chlorophenyl)-7-hydroxy-5-oxo-1,5-dihydroimidazo[1,2-a]pyrimidine-6-carboxamide] | 0.035
10 | CC1(CN)CCN(c2nnc(Sc3cccc(NC(=O)c4c(O)nc5n(c4=O)CCCC5)c3Cl)c(N)n2)CC1 [Example 36, N-(3-((5-amino-3-(4-(aminomethyl)-4-methylpiperidin-1-yl)-1,2,4-triazin-6-yl)thio)-2-chlorophenyl)-2-hydroxy-4-oxo-6,7,8,9-tetrahydro-4H-pyrido[1,2-a]pyrimidine-3-carboxamide] | 0.012
11 | CC1(CN)CCN(c2nnc(Sc3cccc(NC(=O)C4=C(O)NC5CCCCN5C4=O)c3Cl)c(N)n2)CC1 (stereo not drawn) [Example 37, N-(3-((5-amino-3-(4-(aminomethyl)-4-methylpiperidin-1-yl)-1,2,4-triazin-6-yl)thio)-2-chlorophenyl)-2-hydroxy-4-oxo-4,6,7,8,9,9a-hexahydro-1H-pyrido[1,2-a]pyrimidine-3-carboxamide] | 0.006
12 | CC1(CN)CCN(c2nnc(Sc3cccc(NC(=O)c4c(O)nc5c6ccccc6ccn5c4=O)c3Cl)c(N)n2)CC1 [Example 39, N-(3-((5-amino-3-(4-(aminomethyl)-4-methylpiperidin-1-yl)-1,2,4-triazin-6-yl)thio)-2-chlorophenyl)-2-hydroxy-4-oxo-4H-pyrimido[2,1-a]isoquinoline-3-carboxamide] | 0.013
13 | CC1(CN)CCN(c2nnc(Sc3cccc(NC(=O)c4ccc5ccccn5c4=O)c3Cl)c(N)n2)CC1 [Example 40, N-(3-((5-amino-3-(4-(aminomethyl)-4-methylpiperidin-1-yl)-1,2,4-triazin-6-yl)thio)-2-chlorophenyl)-4-oxo-4H-quinolizine-3-carboxamide] | 0.173
14 | CC1(N)CCN(c2nnc(Sc3cccc(NC(=O)c4c(O)nc5ccccn5c4=O)c3Cl)c(N)n2)CC1 [Example 41, N-(3-((5-amino-3-(4-amino-4-methylpiperidin-1-yl)-1,2,4-triazin-6-yl)thio)-2-chlorophenyl)-2-hydroxy-4-oxo-4H-pyrido[1,2-a]pyrimidine-3-carboxamide] | 0.011
15 | Nc1nc(N2CCC3(CCC[C@H]3N)CC2)nnc1Sc1cccc(NC(=O)c2c(O)nc3ccccn3c2=O)c1Cl [Example 42, (R)-N-(3-((5-amino-3-(1-amino-8-azaspiro[4.5]decan-8-yl)-1,2,4-triazin-6-yl)thio)-2-chlorophenyl)-2-hydroxy-4-oxo-4H-pyrido[1,2-a]pyrimidine-3-carboxamide] | 0.016
16 | Nc1nc(N2CCC3(CCC[C@H]3N)CC2)nnc1Sc1cccc(NC(=O)c2c(O)nc3n(c2=O)CCCC3)c1Cl [Example 43, (R)-N-(3-((5-amino-3-(1-amino-8-azaspiro[4.5]decan-8-yl)-1,2,4-triazin-6-yl)thio)-2-chlorophenyl)-2-hydroxy-4-oxo-6,7,8,9-tetrahydro-4H-pyrido[1,2-a]pyrimidine-3-carboxamide] | 0.0015
17 | CC1(N)CCN(c2cnc(Sc3cccc(NC(=O)c4c(O)nc5n(c4=O)CCCC5)c3Cl)cn2)CC1 [Example 44, N-(3-((5-(4-amino-4-methylpiperidin-1-yl)pyrazin-2-yl)thio)-2-chlorophenyl)-2-hydroxy-4-oxo-6,7,8,9-tetrahydro-4H-pyrido[1,2-a]pyrimidine-3-carboxamide] | 0.014
18 | CC1(CN)CCN(c2cnc(Sc3cccc(NC(=O)c4c(O)nc5n(c4=O)CCCC5)c3Cl)cn2)CC1 [Example 45, N-(3-((5-(4-(aminomethyl)-4-methylpiperidin-1-yl)pyrazin-2-yl)thio)-2-chlorophenyl)-2-hydroxy-4-oxo-6,7,8,9-tetrahydro-4H-pyrido[1,2-a]pyrimidine-3-carboxamide] | 0.007
19 | CC1(N)CCN(c2nc3ccc(Sc4cccc(NC(=O)C5=C(O)CN(c6ccccc6)C5=O)c4)nc3[nH]2)CC1 [Example 46, N-(3-((2-(4-Amino-4-methylpiperidin-1-yl)-3H-imidazo[4,5-b]pyridin-5-yl)thio)phenyl)-4-hydroxy-2-oxo-1-phenyl-2,5-dihydro-1H-pyrrole-3-carboxamide] | 0.07
20 | CC1(N)CCN(c2nc3ccc(Sc4cccc(NC(=O)C5=C(O)CN(c6ccccc6)C5=O)c4Cl)nc3[nH]2)CC1 [Example 47, N-(3-((2-(4-amino-4-methylpiperidin-1-yl)-3H-imidazo[4,5-b]pyridin-5-yl)thio)-2-chlorophenyl)-4-hydroxy-2-oxo-1-phenyl-2,5-dihydro-1H-pyrrole-3-carboxamide] | 0.003
21 | O=C(Nc1cccc(Sc2ccc3nc(N4CCCCC4)[nH]c3n2)c1Cl)c1c(O)nc2ccccn2c1=O [Example 48, N-(2-chloro-3-((2-(piperidin-1-yl)-3H-imidazo[4,5-b]pyridin-5-yl)thio)phenyl)-2-hydroxy-4-oxo-4H-pyrido[1,2-a]pyrimidine-3-carboxamide] | 0.061
22 | O=C(Nc1cccc(Sc2ccc3nc(N4CCCCC4)[nH]c3n2)c1Cl)c1c(O)c2nccnc2[nH]c1=O [Example 49, N-(2-chloro-3-((2-(piperidin-1-yl)-3H-imidazo[4,5-b]pyridin-5-yl)thio)phenyl)-8-hydroxy-6-oxo-5,6-dihydropyrido[2,3-b]pyrazine-7-carboxamide] | 0.036
23 | CC1(N)CCN(c2cnc(Sc3ccc(NC(=O)C4=C(O)CN(c5ccccc5)C4=O)cc3Cl)c(N)n2)CC1 [Example 50, N-(4-((3-Amino-5-(4-amino-4-methylpiperidin-1-yl)pyrazin-2-yl)thio)-3-chlorophenyl)-4-hydroxy-2-oxo-1-phenyl-2,5-dihydro-1H-pyrrole-3-carboxamide] | 0.07
24 | CC1(CN)CCN(c2nnc(Sc3cccc(NC(=O)C4=C(O)CN(c5ccccc5)C4=O)c3Cl)c(N)n2)CC1 [Example 51, N-(3-((5-amino-3-(4-(aminomethyl)-4-methylpiperidin-1-yl)-1,2,4-triazin-6-yl)thio)-2-chlorophenyl)-4-hydroxy-2-oxo-1-phenyl-2,5-dihydro-1H-pyrrole-3-carboxamide] | 0.012
